Laboratory results: patent publication US20150307938A1, “METHOD TO IDENTIFY A NOVEL CLASS OF IMMUNOLOGIC ADJUVANTS” (Lancell, L.L.C., priority 2011, published 2015)

Test system: skin
Test: Affymetrix microarray of skin, DBP-4 hr and analogs vs. untreated; gene selection by log-2 fold change, Wilcoxon, Kendall tau (Tables 8, 9)
Type: in vivo, mouse
Conditions: for Kendall: Kendall tau coefficient

CCCCOC(=O)c1ccccc1C(=O)OCCCC [DBP, dibutylphthalate]
DBP Expression: Socs2 (NM_001168655_at, DBP-4 hr): 8.92
DBP Expression: Socs2 (NM_001168656_at, DBP-4 hr): 8.92
DBP Expression: Socs2 (NM_001168657_at, DBP-4 hr): 8.92
DBP Expression: Arid5a (NM_001172205_at, DBP-4 hr): 7.61
DBP Expression: Arid5a (NM_001172206_at, DBP-4 hr): 7.61
DBP Expression: Nfkb2 (NM_001177369_at, DBP-4 hr): 8.26
DBP Expression: Nfkb2 (NM_001177370_at, DBP-4 hr): 8.26
DBP Expression: Cd44 (NM_001177785_at, DBP-4 hr): 9.82
DBP Expression: Cd44 (NM_001177786_at, DBP-4 hr): 9.82
DBP Expression: Cd44 (NM_001177787_at, DBP-4 hr): 9.82
DBP Expression: Smox (NM_001177833_at, DBP-4 hr): 8.18
DBP Expression: Smox (NM_001177834_at, DBP-4 hr): 8.24
DBP Expression: Smox (NM_001177835_at, DBP-4 hr): 8.44
DBP Expression: Smox (NM_001177836_at, DBP-4 hr): 8.07
DBP Expression: Smox (NM_001177837_at, DBP-4 hr): 8.07
DBP Expression: Smox (NM_001177838_at, DBP-4 hr): 8.44
DBP Expression: Smox (NM_001177839_at, DBP-4 hr): 8.07
DBP Expression: Smox (NM_001177840_at, DBP-4 hr): 8.44
DBP Expression: Pde4b (NM_001177980_at, DBP-4 hr): 8.96
DBP Expression: Pde4b (NM_001177981_at, DBP-4 hr): 8.96
DBP Expression: Pde4b (NM_001177982_at, DBP-4 hr): 8.96
DBP Expression: 5730408K05Rik (NR_027866_at, DBP-4 hr): 8.14
DBP Expression: Arid5a (NR_033310_at, DBP-4 hr): 7.61
Wilcoxon (Socs2 NM_007706_at, DBP-4 hr vs. untreated): No
Kendall (Socs2 NM_007706_at): No
Wilcoxon (Socs3 NM_007707_at, DBP-4 hr vs. untreated): Yes
Kendall (Socs3 NM_007707_at): No
Wilcoxon (Timp1 NM_001044384_at, DBP-4 hr vs. untreated): Yes
Kendall (Timp1 NM_001044384_at): No
DBP Expression: LOC100504977 (XM_003085794_at, DBP-4 hr): 8.47
Wilcoxon: 1810046J19Rik (gene 1810046J19Rik, NM_025559_at, DBP-4 hr vs. untreated): No
Kendall: 1810046J19Rik (gene 1810046J19Rik, NM_025559_at, gene expression vs. output): Yes
Wilcoxon: 4933434E20Rik (gene 4933434E20Rik, NM_025762_at, DBP-4 hr vs. untreated): No
Kendall: 4933434E20Rik (gene 4933434E20Rik, NM_025762_at, gene expression vs. output): Yes
Log2 Expression Level (gene #1 of Table 8): 6.82
Log2 Expression Level (gene #2 of Table 8): 6.93
Log2 Expression Level (gene #3 of Table 8): 9.82
Log2 Expression Level (gene #4 of Table 8): 9.82
Log2 Expression Level (gene #5 of Table 8): 7.53
Log2 Expression Level (gene #6 of Table 8): 6.91
Log2 Expression Level (gene #7 of Table 8): 6.26
Log2 Expression Level (gene #8 of Table 8): 6.91
Log2 Expression Level (gene #9 of Table 8): 6.91
Log2 Expression Level (gene #10 of Table 8): 6.91
Log2 Expression Level (gene #11 of Table 8): 6.26
Log2 Expression Level (gene #12 of Table 8): 6.26
Log2 Expression Level (gene #13 of Table 8): 6.26
Log2 Expression Level (gene #14 of Table 8): 6.13
Log2 Expression Level (gene #15 of Table 8): 6.13
Log2 Expression Level (gene #16 of Table 8): 7.45
Log2 Expression Level (gene #17 of Table 8): 9.48
Log2 Expression Level (gene #18 of Table 8): 9.48
Log2 Expression Level (gene #19 of Table 8): 9.61
Log2 Expression Level (gene #20 of Table 8): 11.11
Log2 Expression Level (gene #21 of Table 8): 9.27
Log2 Expression Level (gene #22 of Table 8): 8.24
Log2 Expression Level (gene #23 of Table 8): 6.89
Log2 Expression Level (gene #24 of Table 8): 8.10
Log2 Expression Level (gene #25 of Table 8): 8.10
Log2 Expression Level (gene #26 of Table 8): 8.56
Log2 Expression Level (gene #27 of Table 8): 8.56
Log2 Expression Level (gene #28 of Table 8): 8.56
Log2 Expression Level (gene #29 of Table 8): 7.22
Log2 Expression Level (gene #30 of Table 8): 8.92
Log2 Expression Level (gene #31 of Table 8): 8.92
Log2 Expression Level (gene #32 of Table 8): 8.92
Log2 Expression Level (gene #33 of Table 8): 6.54
Log2 Expression Level (gene #34 of Table 8): 7.61
Log2 Expression Level (gene #35 of Table 8): 7.61
Log2 Expression Level (gene #36 of Table 8): 9.82
Log2 Expression Level (gene #37 of Table 8): 9.82
Log2 Expression Level (gene #38 of Table 8): 9.82
Log2 Expression Level (gene #39 of Table 8): 8.18
Log2 Expression Level (gene #40 of Table 8): 8.24
Log2 Expression Level (gene #41 of Table 8): 8.44
Log2 Expression Level (gene #42 of Table 8): 8.07
Log2 Expression Level (gene #43 of Table 8): 8.07
Log2 Expression Level (gene #44 of Table 8): 8.44
Log2 Expression Level (gene #45 of Table 8): 8.07
Log2 Expression Level (gene #46 of Table 8): 8.44
Log2 Expression Level (gene #47 of Table 8): 8.96
Log2 Expression Level (gene #48 of Table 8): 8.96
Log2 Expression Level (gene #49 of Table 8): 8.96
Log2 Expression Level (gene #50 of Table 8): 10.11
Log2 Expression Level (gene #51 of Table 8): 8.84
Log2 Expression Level (gene #52 of Table 8): 10.36
Log2 Expression Level (gene #53 of Table 8): 8.58
Log2 Expression Level (gene #54 of Table 8): 10.63
Log2 Expression Level (gene #55 of Table 8): 7.56
